Experimental findings from patent US20260347373A1, “HETEROCYCLIC COMPOUNDS, COMPOSITIONS THEREOF, AND METHODS OF TREATMENT THEREWITH” (BeOne Medicines I GmbH, priority 2023, published 2026) are described below.

Read-outs that look alike come from different tables or passages of the source.

For one experiment, the target named is KRAS G12D (Homo sapiens, UniProt P01116, G12D). As to the kind of experiment: KRAS G12D Probe Displacement Assay (TR-FRET, GDP-loaded). The class given is binding. From the text:
(§1) The synthetic routes of probe 1 and 2, which have been disclosed in PCT/CN2022/070676, are hereby incorporated herein.

The target in a further experiment is WT KRAS (Homo sapiens, UniProt P01116). As to the kind of experiment: KRAS WT Probe Displacement Assay (TR-FRET, GDP-loaded). The class given is binding.
WT KRAS, sequence (P01116 1-188 isoform P01116-2): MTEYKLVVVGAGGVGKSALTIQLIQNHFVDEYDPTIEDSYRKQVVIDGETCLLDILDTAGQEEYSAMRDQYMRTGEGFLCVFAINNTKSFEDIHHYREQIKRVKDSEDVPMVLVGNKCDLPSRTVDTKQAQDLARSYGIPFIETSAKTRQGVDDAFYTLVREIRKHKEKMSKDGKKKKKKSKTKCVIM
Text: as §1
(In general: TR-FRET usually uses a lanthanide donor and a delayed reading to cut background.)

The mark [1] stands for this setting: KRAS G12D, read-out: KRAS^G12D Probe Displacement Assay IC50.
Setting [2] is: KRAS WT, read-out: KRAS^WT Probe Displacement Assay IC50.

KRAS G12D, sequence (P01116 1-188 isoform P01116-2 G12D): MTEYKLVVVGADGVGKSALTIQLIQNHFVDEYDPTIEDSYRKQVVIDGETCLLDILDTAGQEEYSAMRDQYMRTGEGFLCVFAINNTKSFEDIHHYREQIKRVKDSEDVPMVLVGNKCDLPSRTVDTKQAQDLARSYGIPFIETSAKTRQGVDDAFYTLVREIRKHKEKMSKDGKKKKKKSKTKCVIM

For the compound `Cc1cc(N)cc(-c2nc3c4c(nc(OCC5(CN6CCC(=C(F)F)CC6)CC5)nc4c2F)N2C[C@H]4CC[C@H](N4)[C@H]2CCO3)c1C(F)(F)F` [Example 146, 3-((6aR,7S,10R)-13-((1-((4-(difluoromethylene)piperidin-1-yl)methyl)cyclopropyl)methoxy)-1-fluoro-5,6,6a,7,8,9,10,11-octahydro-4-oxa-3,11a,12,14,15-pentaaza-7,10-methano-cyclohepta[4,5]cycloocta [1,2,3-de]naphthalen-2-yl)-5-methyl-4-(trifluoromethyl) aniline], the IC50 at KRAS G12D (KRAS^G12D Probe Displacement Assay IC50, KRAS G12D) is less than 0.3 nM; at WT KRAS (KRAS^WT Probe Displacement Assay IC50, KRAS WT), 0.3 to 3 nM.
Consider `Cc1cc(N)cc(-c2nc3c4c(nc(OCC5(CN6C[C@@H]7C[C@H]6CO7)CC5)nc4c2F)N2C[C@H]4CC[C@H](N4)[C@H]2CCO3)c1C(F)(F)F` [Example 68, 3-((6aR,7S,10R)-13-((1-(((1S,4S)-2-oxa-5-azabicyclo[2.2.1]heptan-5-yl)methyl)cyclopropyl)methoxy)-1-fluoro-5,6,6a,7,8,9,10,11-octahydro-4-oxa-3,11a,12,14,15-pentaaza-7,10-methanocyclohepta[4,5]cycloocta [1,2,3-de]naphthalen-2-yl)-5-methyl-4-(trifluoromethyl)aniline], for which the half-maximal inhibitory concentration (IC50) at KRAS G12D (setting [1]) was less than 0.3 nM; at WT KRAS (setting [2]), 3 to 1000 nM.
For `Cc1cc(N)cc(-c2nc3c4c(nc(OCC5(CN6CC7CC(C6)O7)CC5)nc4c2F)N2C[C@H]4CC[C@H](N4)[C@H]2CCO3)c1C(F)(F)F` [Example 105, 3-((6aR,7S,10R)-13-((1-((6-oxa-3-azabicyclo [3.1.1]heptan-3-yl)methyl)cyclopropyl)methoxy)-1-fluoro-5,6,6a,7,8,9,10,11-octahydro-4-oxa-3,11a,12,14,15-pentaaza-7,10-methanocyclohepta [4,5]cycloocta [1,2,3-de]naphthalen-2-yl)-5-methyl-4-(trifluoromethyl)aniline], in that order: less than 0.3 nM and 0.3 to 3 nM.
Take `Cc1cc(N)cc(-c2nc3c4c(nc(OCC5(CN6C[C@H]7CC[C@@H](C6)O7)CC5)nc4c2F)N2C[C@H]4CC[C@H](N4)[C@H]2CCO3)c1C(F)(F)F` [Example 106, 3-((6aR,7S,10R)-13-((1-(((1R,5S)-8-oxa-3-azabicyclo [3.2.1]octan-3-yl)methyl)cyclopropyl)methoxy)-1-fluoro-5,6,6a, 7,8,9,10,11-octahydro-4-oxa-3,11a,12,14,15-pentaaza-7,10-methanocyclohepta [4,5]cycloocta [1,2,3-de]naphthalen-2-yl)-5-methyl-4-(trifluoromethyl)aniline]: the values for the IC50 on KRAS G12D (setting [1]) and on WT KRAS (setting [2]) were less than 0.3 nM and 3 to 1000 nM, respectively.
As for `C=CCN1CCC[C@H]1[C@H](C)Oc1nc2c3c(nc(-c4cc(N)cc(C)c4C(F)(F)F)c(F)c3n1)OCC[C@@H]1[C@@H]3CC[C@H](CN21)N3` [Example 231, 3-((6aR,7S,10R)-13-((S)-1-((S)-1-allylpyrrolidin-2-yl)ethoxy)-1-fluoro-5,6,6a,7,8,9,10,11-octahydro-4-oxa-3,11a,12,14,15-pentaaza-7,10-methanocyclohepta[4,5]cycloocta[1,2,3-de]naphthalen-2-yl)-5-methyl-4-(trifluoromethyl)aniline], the IC50 at KRAS G12D (setting [1]) was less than 0.3 nM; at WT KRAS (setting [2]), 3 to 1000 nM.
As to `COC[C@H]1[C@H]2C[C@H]2CN1CC1(COc2nc3c4c(nc(-c5cc(N)cc(C)c5C(F)(F)F)c(F)c4n2)OCC[C@@H]2[C@@H]4CC[C@H](CN32)N4)CC1` [Example 183, 3-((6aR,7S,10R)-1-fluoro-13-((1-(((1S,2R,5R)-2-(methoxymethyl)-3-azabicyclo[3.1.0]hexan-3-yl)methyl)cyclopropyl)methoxy)-5,6,6a,7,8,9,10,11-octahydro-4-oxa-3,11a,12,14,15-pentaaza-7,10-methanocyclohepta[4,5]cycloocta[1,2,3-de]naphthalen-2-yl)-5-methyl-4-(trifluoromethyl)aniline], the IC50 is less than 0.3 nM at KRAS G12D (setting [1]) and 3 to 1000 nM at WT KRAS (setting [2]).
Turning to `[2H]C([2H])([2H])N1CC[C@H](OC)[C@H]1[C@H](C)Oc1nc2c3c(nc(-c4cc(N)cc(C)c4C(F)(F)F)c(F)c3n1)OCC[C@@H]1[C@@H]3CC[C@H](CN21)N3` [Example 142, 3-((6aR,7S,10R)-1-fluoro-13-((S)-1-((2R,3S)-3-methoxy-1-(methyl-d3)pyrrolidin-2-yl)ethoxy)-5,6,6a,7,8,9,10,11-octahydro-4-oxa-3,11a,12,14,15-pentaaza-7,10-methano-cyclohepta[4,5]cycloocta [1,2,3-de]naphthalen-2-yl)-5-methyl-4-(trifluoromethyl)aniline], the IC50 is less than 0.3 nM at KRAS G12D (setting [1]) and 3 to 1000 nM on WT KRAS (setting [2]).
For the compound `Cc1cc(N)cc(-c2nc3c4c(nc(OCC5(CN6CCCC(C(F)(F)F)C6)CC5)nc4c2F)N2C[C@H]4CC[C@H](N4)[C@H]2CCO3)c1C(F)(F)F` (stereo partly drawn) [Example 118, 3-((6aR,7S,10R)-1-fluoro-13-((1-((3-(trifluoromethyl)piperidin-1-yl)methyl)cyclopropyl)methoxy)-5,6,6a,7,8,9,10,11-octahydro-4-oxa-3,11a,12,14,15-pentaaza-7,10-methanocyclohepta [4,5]cycloocta [1,2,3-de]naphthalen-2-yl)-5-methyl-4-(trifluoromethyl)aniline], the figures for the IC50 on KRAS G12D (setting [1]) and at WT KRAS (setting [2]) were less than 0.3 nM and 3 to 1000 nM, respectively.
In the case of `Cc1cc(N)cc(-c2nc3c4c(nc(OCC5(CN6CC(C)(O)C6)CC5)nc4c2F)N2C[C@H]4CC[C@H](N4)[C@H]2CCO3)c1C(F)(F)F` [Example 81, 1-((1-((((6aR,7S, 10R)-2-(5-amino-3-methyl-2-(trifluoromethyl)phenyl)-1-fluoro-5,6,6a,7,8,9,10,11-octahydro-4-oxa-3,11a,12,14,15-pentaaza-7,10-methanocyclohepta [4,5]cycloocta [1,2,3-de]naphthalen-13-yl)oxy)methyl)cyclopropyl)methyl)-3-methylazetidin-3-ol], the IC50 was less than 0.3 nM on KRAS G12D (setting [1]) and 3 to 1000 nM on WT KRAS (setting [2]).
Take `Cc1cc(N)cc(-c2nc3c4c(nc(OCC5(CN6CCC6)CC5(F)F)nc4c2F)N2C[C@H]4CC[C@H](N4)[C@H]2CCO3)c1C(F)(F)F` (stereo partly drawn) [Example 19, 3-((6aR,7S,10R)-13-((1-(azetidin-1-ylmethyl)-2,2-difluorocyclopropyl)methoxy)-1-fluoro-5,6,6a,7,8,9,10,11-octahydro-4-oxa-3,11a,12,14,15-pentaaza-7,10-methanocyclohepta[4,5]cycloocta[1,2,3-de]naphthalen-2-yl)-5-methyl-4-(trifluoromethyl)aniline]: the IC50 at KRAS G12D (setting [1]) is less than 0.3 nM; on WT KRAS (setting [2]), 3 to 1000 nM.
Regarding `Cc1cc(N)cc(-c2nc3c4c(nc(OCC5(CN(C)C)CC5(F)F)nc4c2F)N2C[C@H]4CC[C@H](N4)[C@H]2CCO3)c1C(F)(F)F` (stereo partly drawn) [Example 16], the IC50 is less than 0.3 nM on KRAS G12D (setting [1]) and 3 to 1000 nM at WT KRAS (setting [2]).
On to `Cc1cc(N)cc(-c2nc3c4c(nc(OCC5(CN6CC7C(C6)C7(F)F)CC5)nc4c2F)N2C[C@H]4CC[C@H](N4)[C@H]2CCO3)c1C(F)(F)F` (stereo partly drawn) [Example 168, 3-((6aR,7S,10R)-13-((1-((6,6-difluoro-3-azabicyclo[3.1.0]hexan-3-yl)methyl)cyclopropyl)methoxy)-1-fluoro-5,6,6a,7,8,9,10,11-octahydro-4-oxa-3,11a,12,14,15-pentaaza-7,10-methanocyclohepta[4,5]cycloocta[1,2,3-de]naphthalen-2-yl)-5-methyl-4-(trifluoromethyl)aniline], for which the IC50 at KRAS G12D (setting [1]) is less than 0.3 nM; at WT KRAS (setting [2]), 3 to 1000 nM.

One may read the IC50 as the point on the concentration scale where inhibition reaches its midpoint.
